Data reported in US20240060146A1, “CHEMICAL SUBSTANCE EVALUATION SYSTEM USING MULTICOLOR LIGHT-EMITTING CELLS” (TOHOKU UNIVERSITY, priority 2020, published 2024).
Counter-ions that a name gives are not always drawn.

What was measured:
Type in all cases: cell-based
[1] = test system: 2H4 cells; assay: IL-2 Luc LTT: evaluation of chemical substance in 2H4 cells; conditions: for IL-2 Luc LTT: 1 h chemical, then 25 nM PMA and 1 μM ionomycin 24 h, class from Min % suppression (nIL2LA) and Min Inh-GAPLA
Description: (§1) 2H4 cells were established from Jurkat cells according to the method described in PTL 1. First, for the preparation of 2H4 cells, a plasmid having SLG introduced downstream of the IL-2 promoter, a plasmid having SLR introduced downstream of the G3PDH promoter, and a plasmid having SLO introduced downstream of the INF-γ promoter were prepared as internal standards. These plasmids contained a resistance gene for hygromycin B, puromycin, and neomycin downstream of SLG, SLR, and SLO, respectively. The conditions for drug selection after transfection of the host Jurkat cells were as follows: in the primary selection, the cells were cultured for 1 week in the presence of a drug. In the secondary selection culture, the cells that survived in the primary selection culture were seeded in a 96-well plate at 1 cell/well or 200 cells/well, and cultured for 2 weeks under the same drug conditions. After the secondary selection culture, the cells were subjected to clone selection from the two points of signal intensity and signal induction by drug treatment. The G3PDH promoter SLR was first introduced to establish monochromatic stable cell line Jurkat: G3PDH-SLR #14D1 cells. These cells were used as the parent cell line to introduce the INF-γ promoter SLO, thereby establishing bichromatic stable cell line Jurkat: INFγ-SLO/G3PDH-SLR #2B12 cells. Subsequently, the obtained cells were used as a parent cell line to introduce the IL-2 promoter SLG, thereby establishing trichromatic stable cell line Jurkat IL-2-SLG/INFγ-SLO/G3PDH-SLR #2H4 cells.
The chemical substances listed in Table 1 were evaluated using 2H4 cells. 2H4 cells were seeded in a 96-well plate at 1×10^4/well and treated with each chemical substance for 1 hour, followed by incubating the cells with 25 nM PMA and 1 μM ionomycin for 24 hours. After 24 hours from the treatment with PMA and ionomycin, Tripluck Assay Reagent (manufactured by Toyobo Co., Ltd.) was added, and the amount of luminescence was measured with a Phelios microplate luminometer (manufactured by Atto Corporation). For control, 2H4 cells untreated with a chemical substance were also examined in the same manner. The amount of luminescence of SLG luciferase activity (IL2LA), SLR luciferase activity (GAPLA), and SLO luciferase activity (IFNLA) was measured, and IL-2LA and IFNLA were each normalized by GAPLA and determined to be nIL2LA and nIFNLA, respectively. Thereafter, for the concentration of each chemical substance, “% suppression” and “Inh-GAPLA” were determined according to the following formulas (1) and (2), and the chemical substances were evaluated by using their minimum value (Min % suppression, Min Inh-GAPLA).
In the evaluation, for control, PMA/ionomycin-treated 2H4 cells and PMA/ionomycin-untreated 2H4 cells were also measured for nIL2LA.
(§2) % suppression={(nIL2LA in 2H4 cells untreated with a chemical substance)−(nIL2LA in 2H4 cells treated with a chemical substance)}×100/(nIL2LA in 2H4 cells untreated with a chemical substance) ---(1) Inh-GAPLA=(GAPLA in 2H4 cells treated with a chemical substance)/(GAPLA in 2H4 cells untreated with a chemical substance) ---(2)

[2] = test system: 2H4 cells; assay: IL-2 Luc assay: evaluation of chemical substance in 2H4 cells; conditions: for IL-2 Luc Assay: 1 h chemical, then PMA/ionomycin, luminescence after six hours, class from Min % suppression of nIL2LA
Description: as §1, §2
The chemical substances listed in Table 1 were evaluated using 2H4 cells. 2H4 cells were seeded in a 96-well plate at 2×10^5 cells/50 μl/well and treated with each chemical substance for 1 hour, followed by incubating the cells with 25 nM PMA and 1 µM ionomycin […]. After six hours from the treatment with PMA and ionomycin, Tripluc: Assay Reagent (manufactured by Toyobo Co., Ltd.) was added, and the amount of luminescence was measured with a Phelios microplate luminometer (manufactured by Atto Corporation). For control, 2H4 cells untreated with a chemical substance were also examined in the same manner. The amount of luminescence of SLG luciferase activity (IL2LA), SLR luciferase activity (GAPLA), and SLO luciferase activity (IFNLA) was measured, and IL-2LA and IFNLA were each normalized by GAPLA and determined to be nIL2LA and nIFNLA, respectively. Thereafter, for the concentration of each chemical substance, the value of suppression was calculated according to formula (1) above, and the chemical substances were evaluated by using their minimum value (Min suppression).

[3] = test system: 2H4 cells; assay: Evaluation of combination of IL-2 Luc LTT and IL-2 Luc assay; design: key: Positive (Pos): If the result is either LCT in the IL-2 Luc LTT or S in the IL-2 Luc assay, or both, the chemical substance is determined to be an immunosuppressive substance.; Negative (Neg): In the case other than the above, the chemical substance is determined to be a non-immunosuppressive substance; conditions: LCT in IL-2 Luc LTT or S in IL-2 Luc assay = Pos
Description: Positive (Pos): If the result is either LCT in the IL-2 Luc LTT or S in the IL-2 Luc assay, or both, the chemical substance is determined to be an immunosuppressive substance. Negative (Neg): In the case other than the above, the chemical substance is determined to be a non-immunosuppressive substance.

SMILES | IL-2 Luc LTT [1] | Evaluation of Combination [3] | IL-2 Luc Assay [2] | determination in IL-2 Luc LTT (in words) [1] | determination by the IL-2 Luc assay alone (in words) [2]
CN(C/C=C/C#CC(C)(C)C)Cc1cccc2ccccc12 [Terbinafine] | NLCT | Pos | N (−35<Min % suppression <35: No Effect (denoted as “N”; determined to not affect immunity)) | – | –
CCN(CC)CCCC(C)Nc1ccnc2cc(Cl)ccc12 (stereo not drawn) [Chloroquine (CQ), Chloroquine] | NLCT | Pos | S (Min %; suppression ≥35: Suppression (denoted as “S”; determined to have immunosuppressive action)) | – | –
C[C@H]1O[C@@H](O[C@H]2[C@@H](O)C[C@H](O[C@H]3[C@@H](O)C[C@H](O[C@H]4CC[C@@]5(C)[C@H](CC[C@@H]6[C@@H]5C[C@@H](O)[C@]5(C)[C@@H](C7=CC(=O)OC7)CC[C@]65O)C4)O[C@@H]3C)O[C@@H]2C)C[C@H](O)[C@@H]1O [Digoxin] | NLCT | Pos | S (Min %; suppression ≥35: Suppression (denoted as “S”; determined to have immunosuppressive action)) | – | –
CO[C@H]1C[C@@H]2CC[C@@H](C)[C@@](O)(O2)C(=O)C(=O)N2CCCC[C@H]2C(=O)O[C@H]([C@H](C)C[C@@H]2CC[C@@H](O)[C@H](OC)C2)CC(=O)[C@H](C)/C=C(\C)[C@@H](O)[C@@H](OC)C(=O)[C@H](C)C[C@H](C)/C=C/C=C/C=C/1C [Rapamycin (RPM), Rapamycin] | LCT (Min % suppression ≤−35 and Min Inh-GAPLA <0.7: Leukocyte toxic (denoted as “LCT”; determined to have cell growth inhibition action and/or metabolic activity inhibition action)) | Pos | N (−35<Min % suppression <35: No Effect (denoted as “N”; determined to not affect immunity)) | inhibit cell growth and/or metabolic activity | –
Cc1c(OCC(F)(F)F)ccnc1C[S+]([O-])c1nc2ccccc2[nH]1 (stereo not drawn) [Lansoprazole] | NLCT | Pos | S (Min %; suppression ≥35: Suppression (denoted as “S”; determined to have immunosuppressive action)) | – | –
CN(C)CCOC(c1ccccc1)c1ccccc1 [Diphenhydramine] | NLCT | Pos | S (Min %; suppression ≥35: Suppression (denoted as “S”; determined to have immunosuppressive action)) | – | –
CS(=O)(=O)OCCCCOS(C)(=O)=O [Busulfan] | I (−35<Min % suppression <35 and 0.7≤Min Inh-GAPLA: Inconclusive (denoted as “I”; possibly not measurable due to low water solubility)) | Neg | N (−35<Min % suppression <35: No Effect (denoted as “N”; determined to not affect immunity)) | – | –
COc1cc2c(c(OC)c1OC)-c1ccc(OC)c(=O)cc1[C@@H](NC(C)=O)CC2 [Colchicine] | LCT (Min % suppression ≤−35 and Min Inh-GAPLA <0.7: Leukocyte toxic (denoted as “LCT”; determined to have cell growth inhibition action and/or metabolic activity inhibition action)) | Pos | S (Min %; suppression ≥35: Suppression (denoted as “S”; determined to have immunosuppressive action)) | – | –
Cn1cnc([N+](=O)[O-])c1Sc1ncnc2nc[nH]c12 [Azathioprine (AZ), Azathioprine] | NLCT | Pos | S (Min %; suppression ≥35: Suppression (denoted as “S”; determined to have immunosuppressive action)) | – | –
Nc1nc2c(ncn2COCCO)c(=O)[nH]1 [Acyclovir] | I (−35<Min % suppression <35 and 0.7≤Min Inh-GAPLA: Inconclusive (denoted as “I”; possibly not measurable due to low water solubility)) | Neg | N (−35<Min % suppression <35: No Effect (denoted as “N”; determined to not affect immunity)) | – | –
Nc1ccn([C@@H]2O[C@H](CO)[C@@H](O)C2(F)F)c(=O)n1 [Gemcitabine hydrochloride] | NLCT | Pos | N (−35<Min % suppression <35: No Effect (denoted as “N”; determined to not affect immunity)) | – | –
COc1c(C)c2c(c(O)c1C/C=C(\C)CCC(=O)O)C(=O)OC2 [Mycophenolic acid (MPA), Mycophenolic acid] | LCT (Min % suppression ≤−35 and Min Inh-GAPLA <0.7: Leukocyte toxic (denoted as “LCT”; determined to have cell growth inhibition action and/or metabolic activity inhibition action)) | Pos | A (Min suppression ≤−35: Augmentation (denoted as “A”; determined to have immunoaugmenting action)) | inhibit cell growth and/or metabolic activity | determined to not have imnunosuppressive action

The next lines start with results.

IL-2 Luc LTT [1] | Evaluation of Combination [3] | SMILES | IL-2 Luc Assay [2] | determination in IL-2 Luc LTT (in words) [1] | determination by the IL-2 Luc assay alone (in words) [2]
NLCT | Neg | C[C@@H]1C[C@H]2[C@@H]3CCC4=CC(=O)C=C[C@]4(C)[C@@]3(F)[C@@H](O)C[C@]2(C)[C@@]1(O)C(=O)CO [Dexamethasone (Dex), Dexamethasone] | N (−35<Min % suppression <35: No Effect (denoted as “N”; determined to not affect immunity)) | – | –
NLCT | Pos | CN(C)c1ccc(O)c2c1C[C@H]1C[C@H]3[C@H](N(C)C)C(O)=C(C(N)=O)C(=O)[C@@]3(O)C(O)=C1C2=O [Minocycline (MC), Minocycline] | S (Min %; suppression ≥35: Suppression (denoted as “S”; determined to have immunosuppressive action)) | – | –
NLCT | Pos | CS(=O)(=O)Nc1cc2occ(NC=O)c(=O)c2cc1Oc1ccccc1 [Igratimod] | S (Min %; suppression ≥35: Suppression (denoted as “S”; determined to have immunosuppressive action)) | – | –
NLCT | Pos | C=CC[C@@H]1/C=C(\C)C[C@H](C)C[C@H](OC)[C@H]2O[C@@](O)(C(=O)C(=O)N3CCCC[C@H]3C(=O)O[C@H](/C(C)=C/[C@@H]3CC[C@@H](O)[C@H](OC)C3)[C@H](C)[C@@H](O)CC1=O)[C@H](C)C[C@@H]2OC [Tacrolimus (Tac), Tacrolimus] | S (Min %; suppression ≥35: Suppression (denoted as “S”; determined to have immunosuppressive action)) | – | –
